Assay [1] concerns Desulfovibrio vulgaris Hildenborough (DvH). Description: Carbon steel coupon weight loss analysis in DvH cultures. The format is cell-based. As for the experimental part: (§1) Carbon steel coupons were incubated in the presence of 0 and 2 mM indole, with and without an inoculum of DvH.
(§2) The metal loss of the carbon steel coupons was measured. FIG. 1 is a bar graph comparing corrosion as measured in coupon weight loss under the compound (indole) and SRB (DvH) tested.
(§3) Steel coupons were incubated in cultures of DvH for three days with and without indole and then the coupons were measured to determine the amount of metal loss due to corrosion. […] The error bars represent the standard error of the mean from 2 replicates.
The wild-type D. vulgaris Hildenborough (DvH) was obtained from Judy Wall at the University of Missouri and Adam Deutchbauer at the Lawrence Berkeley National Laboratory. Freezer stocks of DvH containing 10% glycerol were used to inoculate overnight cultures. The growth media (L30S30B2) contained 30 mM lactate, 30 mM sulfate, 8 mM MgCl2, 20 mM NH4Cl, 2.2 mM phosphate buffer, 0.6 mM CaCl2, 24 mM NaCO3, 0.02% resazurin, 0.06 mM FeCl2, trace elements and Thauer's vitamins (Lee et al., “Indole as an intercellular signal in microbial communities,” 2010, pp. 426-444) with pH adjusted to 7.2. Media was bubbled with 15% CO2 balance N2 and sodium dithionite was added immediately before inoculation to a final concentration of […]. Media containing 0-4 mM indole was made by anaerobically mixing varied volumes of L30S30B2 and L30S30B2 supplemented with 4 mM indole (Sigma-Aldrich, 13408).
(§4) Rectangular X52 carbon steel coupons were polished on 600 grit sand paper and weighed prior to the experiment. 60 ml of L30S30B2 media containing 0-2 mM indole was anaerobically transferred into each autoclaved serum bottle with 1 coupon hung on plastic fishing wire. 1 ml of a DvH overnight culture was inoculated into each bottle and incubated at 30° C. with gentle shaking for 3 days. After the incubation the coupons were descaled with Clarke's solution (tin choloride and antimony oxide in concentrated hydrochloric acid), rinsed with water, dried under nitrogen gas, and weighed again. The metal weight loss after exposure to DvH was then calculated.

Assay [2] in a line: Carbon steel coupon weight loss in a sterile environment without DvH inoculation. The settings on record: 2 mM indole, carbon steel coupons, FIG. 1. As for the experimental part:
as §1, §2, §4

The test system of assay [3] is Desulfovibrio vulgaris Hildenborough (DvH). The experiment in a line: DvH metabolism by ion chromatography (lactate, sulfate, acetate). To be noted: 0.5-2 mM indole, FIG. 2B, 2 replicates. The format is cell-based. As for the experimental part:
as §3
The wild-type D. vulgaris Hildenborough (DvH) was obtained from Judy Wall at the University of Missouri and Adam Deutchbauer at the Lawrence Berkeley National Laboratory. Freezer stocks of DvH containing 10% glycerol were used to inoculate overnight cultures. The growth media (L30S30B2) contained 30 mM lactate, 30 mM sulfate, 8 mM MgCl2, 20 mM NH4Cl, 2.2 mM phosphate buffer, 0.6 mM CaCl2, 24 mM NaCO3, 0.02% resazurin, 0.06 mM FeCl2, trace elements and Thauer's vitamins (Lee et al., “Indole as an intercellular signal in microbial communities,” 2010, pp. 426-444) with pH adjusted to 7.2. […]
Ion Chromatography (IC)—One milliliter of cultures were extracted at the beginning and the end of the experiment, centrifuged at 14000 rpm for 2 min, filtered through 0.2 μm cellulose acetate filters, and kept at −20° C. until further IC analysis. Anions of lactate, sulfate, and acetate were quantified using suppressed conductivity on a Dionex ICS-5000 Reagent-Free HPIC System with a Dionex IonPac AS 11-HC column (0.4 mm×250 mm, Thermo Fisher, Massachusetts, USA). […]

On to `c1ccc2[nH]ccc2c1` [indole], for which the “reduction of corrosion (coupon weight loss) compared to the no indole treatment” value in assay [1] (2 mM indole, carbon steel coupons, in the presence of DvH (MIC), FIG. 1) was 2 fold. Moreover, the “metal loss of coupons incubated in the absence of indole relative to coupons in the presence of indole” value in assay [1] (0.5-2 mM indole, steel coupons in DvH cultures, three days, FIG. 2A) is ~2 fold. For the same compound, the “corrosion of metal coupons” value in assay [1] (0.5 to 2 mM indole, DvH cultures, three days) is recorded as “little to no corrosion”. For the same compound, the “reduction in coupon weight loss in sterile environment” value in assay [2] was “not replicated”. Also, in assay [3], the “metabolism of DvH (consumption of lactate and sulfate, production of acetate)” value is recorded as “not significantly affected”.
